From PMC3551614 (Journal of the American Chemical Society, 2012)
Numbered stars: 1 amine (or outer) side, 2 acyl side, 3 side chain; on linkers, the order of the positions; unused ones are H or OH. Bridge positions count the residues as written; N and C are the ends. Square brackets hold non-standard residues; d marks the D form. Peptide text beside a SMILES is read from it. * marks the point of attachment. 5FAM = O=C1OC2(c3ccc(O)cc3Oc3cc(O)ccc32)c2ccc(C(=O)*)cc21; X1 = O=C([C@H]1CNC[C@@H]1N[*:1])[*:2]; β3hE = N[C@@H](CCC(=O)O)CC(=O)O; β3hN = NC(=O)C[C@H](N)CC(=O)O; β3hL = CC(C)C[C@H](N)CC(=O)O; Nle = CCCC[C@H](N)C(=O)O

Molecular target: T1, VEGF (Homo sapiens, UniProt P15692)
T1 sequence (P15692 1-191 isoform P15692-4): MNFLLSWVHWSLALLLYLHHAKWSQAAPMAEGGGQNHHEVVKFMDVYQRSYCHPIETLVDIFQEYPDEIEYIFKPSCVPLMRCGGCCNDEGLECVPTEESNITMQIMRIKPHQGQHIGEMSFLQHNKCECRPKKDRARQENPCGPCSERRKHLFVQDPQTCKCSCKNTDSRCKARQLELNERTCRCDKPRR
Experiment: direct FP binding of N-terminal fluorescein derivatives
Settings: domain 2 of VEGFR1 as competitor

CCCC[C@@H]1NC(=O)[C@H](C(C)C)NC(=O)[C@H](Cc2c[nH]cn2)NC(=O)[C@H]([C@@H](C)CC)NC(=O)[C@H](CC(=O)O)NC(=O)[C@@H](NC(=O)C[C@H](CC(N)=O)NC(=O)[C@@H]2CCCN2C(=O)C[C@H](CCC(=O)O)NC(=O)[C@@H](NC(=O)c2ccc3c(c2)C(=O)OC32c3ccc(O)cc3Oc3cc(O)ccc32)C(C)C)CSSC[C@@H](C(=O)N[C@@H](Cc2ccccc2)C(=O)N[C@H]2CNC[C@@H]2C(=O)N[C@@H](CCCNC(=N)N)C(=O)N[C@H](CC(N)=O)CC(C)C)NC(=O)[C@H](CCC(=O)O)NC(=O)[C@H](Cc2c[nH]c3ccccc23)NC(=O)C[C@H](CCC(=O)O)NC(=O)[C@H](Cc2c[nH]c3ccccc23)NC1=O [Flu-3] (5FAM-V[β3hE]P[β3hN]CDIHV[Nle]W[β3hE]WECF[X1]R[β3hL]-NH2; disulfide 5-15; N-terminus and C-terminus assumed)
displacement from VEGF by domain 2 of VEGFR1: displaces
